# Laboratory results as given in publication PMC3581310 (Bioorganic & medicinal chemistry, 2012).
# Experiments:
# [1] = tested on: ER; conditions: triphenyl acrylonitriles; cited from earlier work
# [2] = tested on: human endometrial adenocarcinoma cells (Ishikawa); assay: Estrogen bioassay: induction of AlkP in Ishikawa cells; type: cell-based
# [3] = tested on: ER; conditions: cited from earlier work
structure (smiles),measurement,setting,value
COc1ccc(C(=C(C#N)c2ccc(O)cc2)c2ccc(O)cc2)cc1,efficacy,[1],‘partial’ agonist responses
"COc1ccc([C@H]2C[C@]3(C)[C@@H](O)CC[C@H]3[C@@H]3CCc4cc(O)ccc4[C@H]32)cc1 [Compound 5, 11β-(4-Methoxyphenyl)estra-1,3,5(10)-trien-3,17β-diol]",Max stim,"[2]; maximal stimulation of AlkP in Ishikawa cells, printed in the RSA column",Max stim = 35–45%
"C[C@]12CC[C@@H]3c4ccc(O)cc4CC[C@H]3[C@@H]1CC[C@@H]2O [Compound E2, estradiol]",EC50,"[2]; Homo sapiens, Ishikawa, read-out: EC50 of E2",~0.2 nM
CC/C(=C(\c1ccccc1)c1ccc(OCCN(C)C)cc1)c1ccccc1 [tamoxifen],affinity (RBA),[3],~ 1%
"N#CC(=C(c1ccc(O)cc1)c1ccc(O)cc1)c1ccc(O)cc1 [α,α′,β-tris(4-hydroxyphenyl) compound]",efficacy,[1],full agonist
